According to ChEMBL document CHEMBL1127695, “Rational modification of human synovial fluid phospholipase A2 inhibitors” (J Med Chem, 1994):

Columns and labels:
[1] = target: T1, Phospholipase A2, membrane associated (Homo sapiens) (UniProt P14555); experiment: Tested for the inhibition of human synovial fluid phospholipase A2
T1 sequence (whole entry): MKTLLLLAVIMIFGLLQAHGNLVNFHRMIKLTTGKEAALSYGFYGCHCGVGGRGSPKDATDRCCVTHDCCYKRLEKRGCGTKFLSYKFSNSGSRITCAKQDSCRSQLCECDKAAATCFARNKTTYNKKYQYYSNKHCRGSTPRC

[2] = target: Phospholipase A2, major isoenzyme (Sus scrofa) (UniProt P00592); experiment: Tested for the inhibition of porcine pancreatic enzyme; details: concentration not given here
[3] = target: T1, Phospholipase A2, membrane associated (Homo sapiens); experiment: Tested for the inhibition of human synovial fluid enzyme phospholipase A2 (PLA2); details: concentration not given here

Phospholipase A2, major isoenzyme (Sus scrofa), sequence (P00592 23-146 limits assumed): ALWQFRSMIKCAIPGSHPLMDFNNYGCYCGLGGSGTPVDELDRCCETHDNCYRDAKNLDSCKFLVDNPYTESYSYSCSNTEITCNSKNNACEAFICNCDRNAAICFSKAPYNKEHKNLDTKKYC

X1(50) (mole fraction) [1]	inhibition [2]	inhibition [3]	SMILES
0.025	–	–	CCCCCCCCOC[C@H](COP(=O)(O)OCCN)OP(=O)(O)CCCCCCC
–	43%	66%	CCCCCCCCCCS(=O)(=O)NC(CCCCCC)COP(=O)(O)OCCO (stereo not drawn)
